Reference: patent US20220347186A1, “METHODS AND COMPOSITIONS FOR TREATING SICKLE CELL DISEASE AND THALASSEMIA” (THE UNIVERSITY OF CHICAGO, priority 2019, published 2022)
Entries after “also recorded” stand apart in the source; their conditions may differ.

Assays:
[1] = tested on: BET proteins; details: cited from earlier work; for Bromodomain preference (BD1 vs BD2): BET proteins; for Affinity among BET family members: BRD2/BRD3/BRD4/BRDT, literature refs 17, 18
[2] = tested on: TF-1 cells; test: RT-qPCR quantification of gene expression in TF-1 cells; type: cell-based, human; details: for HBB, HBG1/2 and HBE1 expression compared with JQ1: CPI-0610 reapplied daily, PLX51107 once at day 0
Description: (§1) K562, HEL, and HL-60 cells were cultured in RPMI 1640 medium supplemented with 10% FBS. TF-1 cells were cultured in RPMI 1640 medium supplemented with 10% FBS and 4 ng/mL GM-CSF. Before treatment, TF-1 cells were washed 4× with RPMI 1640 without supplements, and cultured in RPMI 1640 medium with 10% FBS but no GM-CSF for 24 hours. 4 ng/mL GM-CSF or 3 units/mL EPO were added at the time of treatment set up. K562, HEL, and HL-60 cells were cultured as normal until treatment set up. JQ1 (Sigma-Aldrich, SML1524), CPI-0610 (Selleck Chemicals, S7853), and PLX51107 (MedChemExpress, HY-111422) were dissolved in DMSO to 10 mM concentration and stored in −80° C. All three inhibitors were applied to cells at 200 nM, with parallel DMSO treatment (0.002%) as control. JQ1 and PLX51107 were added to cell culture at day 0 without additional treatments up to day 5. CPI-0610 was reapplied to the cells on a daily basis.
(§2) cDNA libraries for mRNAs were made from 1 μg input RNA using High-Capacity cDNA Reverse Transcription Kit (ThermoFisher, 4368814). Gene expressions were quantified using Power SYBR Green PCR Master Mix (Thermofisher, 4367659). For microRNAs, cDNA libraries were made with Taqman Advanced miRNA cDNA Synthesis Kit (Thermofisher, A28007). miR-15A and miR-16-1 were quantified using the Taqman Advanced miRNA Assays (ThermoFisher, A25576) specific to hsa-miR-15a-5p (assay ID: 477858_mir) and hsa-miR-16-5p (assay ID: 477860_mir).

[3] = tested on: K562 cells; test: RT-qPCR quantification of gene expression in K562 cells; type: cell-based, human; details: for HBB, HBG1/2 and HBE1 expression compared with JQ1: CPI-0610 reapplied daily, PLX51107 once at day 0
Description: as §1, §2

[4] = Lifespan in culture medium; type: physicochemical
[5] = tested on: β-globin locus in K562 cells; test: 3C-qPCR interaction frequency at the β-globin locus in K562 cells; type: cell-based, human
Description: as §1
Methods for chromatin conformation capture (3C) qPCR was adapted from Hagège et al. (42). Briefly, 10 million cells were collected and fixed with 1% formaldehyde for 5 minutes in PBS with 10% FBS for 5 minutes, then quenched by 124 mM glycine on ice. The fixed cells were then lysed and digested by 400 units of EcoRI (NEB, R3101). Small aliquots of the samples were taken before and after the digestion as digestion controls. Following the digestion, the samples were diluted and ligated by T4 DNA ligase (NEB, M0202). The samples were then reverse-crosslinked, and DNA was purified by phenol-chloroform extraction. The digestion efficiency, sample purity, and DNA concentration of each sample were assessed by qPCR to exclude low-quality samples prior to the 3C quantification. Calculated quantity of each primer pairs was normalized as number of templates per million B13 control site template. Additionally, because the Gg primer anneals to both HBG1 and HBG2 fragments, while the Ag primer anneals to only HBG2 fragment, the Gg primer signal was subtracted by Ag primer signal to quantify the HBG1 interaction frequency. […]

[6] = tested on: K562 cells; test: RNA-seq gene expression in K562 cells; type: cell-based, human
Description: as §1
(§3) Sample RNA libraries were prepared using the KAPA mRNA HyperPrep Kit (Roche, KK8580) with 1 μg input RNA and submitted for sequencing. Raw reads in fastq format were aligned to the hg19 reference genome using HISAT2(38) with Gencode gene and transcript annotation (GRCh37.p13)(39). Gene expression was quantified and compared by tools in the Cuffliks package (40). GO analysis and term clustering was performed using g:Profiler and Cytoscape following the protocols published by Reimand et al (41).

[7] = tested on: GATA1 in K562 cells; test: Immunoprecipitation and quantification of total and acetyl-GATA1; type: cell-based; details: K562 nuclear lysate
Description: Nuclear protein was extracted according to previously described protocol (45). 10% of the nuclear protein extraction was saved as input. The remaining nuclear extract was diluted with non-denaturing IP buffer (20 mM Tris-HCl pH 8, 137 mM NaCl, 10% glycerol, 1% Triton X-100, 2 mM EDTA) and pre-cleared with normal rat IgG (Santa Cruz, sc2026) and Dynabeads Protein G (ThermoFisher, 10004D). Pre-cleared solutions were split into two equal portions, and 5 μg of anti-GATA1 antibody (Santa Cruz, sc266) or normal rat IgG were added to either portion and incubated overnight at 4° C. overnight. Antibodies were then pulled-down using Dynabeads Protein G, and washed 1× with the IP buffer and 2× with PBS containing 1% Triton X-100. The beads were boiled in 2× protein loading buffer to dissociate the proteins. Input and IP-ed proteins were ran on SDS-PAGE gels and transferred to PVDF membranes. The input samples were blotted using anti-topoisomerase 1 (Abcam, ab109374) and anti-GATA1 antibodies, and the IP-ed samples were blotted with anti-acetyl-lysine antibody (Abcam, ab21623). Quantification of signal intensity was done by ImageJ, and GATA1 and acetyl-GATA1 signals were normalized to the topoisomerase 1 signals in each sample.

[8] = tested on: K562 cells; test: Benzidine-hematoxylin staining for hemoglobin producing cells; type: cell-based; details: 200 nM
Description: as §1
K562 cells were counted, and 200,000 cells were collected by spinning at 400 g. […]
At least three randomly selected fields of stained cells were imaged at 40× magnification. […] The numbers of benzidine-positive cells and the intensity of benzidine staining were quantified in the benzidine channel, whereas the total cell number and abnormal nuclear morphology were quantified in the hematoxylin channel. Results of all fields from each slide were summed for the final quantification.

[9] = tested on: β-globin locus in TF-1 cells; test: 3C-qPCR interaction frequency at the β-globin locus in TF-1 cells; type: cell-based, human
Description: as §1, with “JQ1 and PLX51107 were added to cell culture at day 0 without additional treatments up to day 5. CPI-0610 was reapplied to the cells on a daily basis.” left out
Methods for chromatin conformation capture (3C) qPCR was adapted from Hagège et al. (42). […] The digestion efficiency, sample purity, and DNA concentration of each sample were assessed by qPCR to exclude low-quality samples prior to the 3C quantification. Calculated quantity of each primer pairs was normalized as number of templates per million B13 control site template. Additionally, because the Gg primer anneals to both HBG1 and HBG2 fragments, while the Ag primer anneals to only HBG2 fragment, the Gg primer signal was subtracted by Ag primer signal to quantify the HBG1 interaction frequency. […]

[10] = tested on: HEL cells; test: RT-qPCR quantification of hemoglobin gene expression in HEL cells; type: cell-based, human; details: 200 nM
Description: as §1, §2

[11] = tested on: K562 cells; test: Sanger sequencing of HBG1/2 cDNA, HBG1 vs HBG2 ratio, K562 cells; type: cell-based, human; details: DMSO vs JQ1 treatment, sequencing peak heights
[12] = tested on: HL-60 cells; test: RT-qPCR quantification of hemoglobin gene expression in HL-60 cells; type: cell-based, human; details: 200 nM
Description: as §1, with “CPI-0610 was reapplied to the cells on a daily basis.” left out
as §2

[13] = tested on: HEL cells; test: Cell growth and viability of HEL cells with BET inhibitor; type: cell-based; details: 200 nM vs DMSO control, days 0-3
Description: as §1

[14] = tested on: K562 cells; test: Cell growth and viability of K562 cells with BET inhibitor; type: cell-based; details: 200 nM vs DMSO control
Description: as §1

[15] = tested on: HEL cells; test: Sanger sequencing of HBG1/2 cDNA, HBG1 vs HBG2 ratio, HEL cells; type: cell-based, human; details: DMSO vs JQ1 treatment, sequencing peak heights
[16] = tested on: TF-1 cells; test: RNA-seq gene expression in TF-1 cells; type: cell-based, human
Description: as §1, §3

[17] = TF-1 cells under proliferative condition, 200 nM
[18] = TF-1 cells, both proliferation and erythropoietic conditions

Structure (SMILES): Cc1noc2c1-c1ccccc1C(c1ccc(Cl)cc1)=N[C@H]2CC(N)=O [CPI-0610]
- Bromodomain preference (BD1 vs BD2) [1]: preference for the second bromodomain (BD2)
- Affinity among BET family members [1]: comparable affinity
- HBB, HBG1/2 and HBE1 expression compared with JQ1 ([2]; TF-1 cells, 200 nM): mimic the effects of JQ1
- HBB, HBG1/2 and HBE1 expression compared with JQ1 ([3]; 200 nM): mimic the effects of JQ1
- Lifespan in culture medium [4]: short lifespan

Structure (SMILES): Cc1sc2c(c1C)C(c1ccc(Cl)cc1)=N[C@@H](CC(=O)OC(C)(C)C)c1nnc(C)n1-2 [JQ1]
- Interaction frequency of 5′BG (5′BGLT3 fragment) with the HBG1/2 region and the LCR [5]: significantly increase
- Increase in interaction frequency between the LCR and the HBG promoter region ([5]; 72 hours of JQ1 treatment): over 2 fold
- Interaction frequency between the LCR and the rest of the β-globin locus ([5]; 72 hours of JQ1 treatment): slight increases
- Expression of heme biosynthesis pathway genes, notably ALAS2 ([6]; RNA-seq): upregulated
- Expression of α- and β-globin hemoglobin genes ([6]; RNA-seq): increased the expression of all α- and β-globin hemoglobin genes except HBB and HBD
- GATA1 expression ([6]; RNA-seq): did not change
- HEMGN expression ([6]; RNA-seq): significantly suppresses
- NR2F2 expression ([6]; RNA-seq): did not change
- Differentiation (GO analysis of up- and down-regulated genes) ([6]; day 3 and day 5): specifically promotes erythroid, but not myeloid differentiation
- Transcriptome (gene expression) change ([6]; day 3 and day 5, JQ1 vs DMSO): substantially changed the transcriptome
- GATA1 acetylation ([7]; IP, anti-acetyl-lysine): remained unchanged; also recorded: does not affect
- Total GATA1 level ([7]; normalized to TOP1): did not affect
- Affinity among BET family members [1]: higher affinity for BRD3 and BRD4
- Percentage of hemoglobin producing cells (benzidine-hematoxylin staining) ([8]; day 3): ~6%
- Percentage of hemoglobin producing cells (benzidine-hematoxylin staining) ([8]; day 5): over 10%
- Interaction with LCR across the entire locus, except at the HBE1 promoter region ([9]; both proliferative and erythropoietic conditions, 72 hours): modest decrease
- Interaction between 5′BG and upstream fragments ([9]; more prominent in the erythropoietic condition): slight decrease
- HBB expression [10]: suppressing
- HBE1 expression [10]: significantly upregulated
- HBG1/2 expression [10]: significantly upregulated
- miR-15A expression ([2]; TF-1 cells): significantly upregulated
- miR-16-1 expression ([2]; TF-1 cells): significantly upregulated
- HBB expression ([2]; TF-1 cells treated with both EPO and JQ1): significantly decreased
- HBE1 expression increase ([2]; TF-1 cells treated with both EPO and JQ1, day 5): over 200 fold
- HBB expression [2, 17]: not observed
- HBE1 expression ([2]; TF-1 cells, 200 nM, without EPO): only upregulated
- BCL11A expression ([2]; TF-1 cells, RT-qPCR): significantly suppressed
- MYB expression ([2]; TF-1 cells, RT-qPCR): significantly suppressed
- HEMGN expression ([2]; TF-1 cells, RT-qPCR, especially under erythropoietic condition): significantly suppressed
- Proportion of HBB transcripts relative to total β-globin transcripts [2, 18]: significantly decreased
- Proportion of HBE1 transcripts relative to total β-globin transcripts [2, 18]: increased
- Ratio of HBG1 vs. HBG2 [11]: no significant changes
- HBB, HBG1/2 and HBE1 expression [12]: had no effect
- miR-15A expression [3]: significantly upregulated
- miR-16-1 expression [3]: significantly upregulated
- HBB expression ([3]; 200 nM, 5-day time course): unaffected
- HBE1 expression ([3]; 200 nM, 5-day time course): upregulated
- HBG1/2 expression ([3]; 200 nM, 5-day time course): upregulated
- MYC expression ([3]; 200 nM, up to 4 days after the initial treatment): consistently suppressed
- BGLT3 expression increase ([3]; RT-qPCR): 6 fold
- HEMGN expression ([3]; RT-qPCR): significantly suppressed
- MYB expression ([3]; RT-qPCR): significantly suppressed
- Cell growth [13]: grow slower; also recorded: significantly suppress cell growth by Day 3
- Cell viability [13]: unaffected; also recorded: did not affect cell viability
- Cell growth [14]: grow slower; also recorded: not significantly affected; also recorded: slightly suppresses cell growth, but this effect was not statistically significant; also recorded: slightly suppress cell growth, but this effect was not statistically significant
- Cell viability [14]: unaffected; also recorded: not significantly affected; also recorded: did not affect cell viability
- Ratio of HBG1 vs. HBG2 [15]: no significant changes
- GATA1 expression ([16]; TF-1 cells): did not change
- HBA1/2 expression (α-globin locus) ([16]; TF-1 cells): upregulated
- HBE1 expression (β-globin locus) ([16]; TF-1 cells): specifically induced
- HEMGN expression ([16]; TF-1 cells): significantly suppresses
- KLF1 expression ([16]; TF-1 cells, erythropoietic condition): slightly decreased
- ALAS2 expression ([16]; TF-1 cells, especially under erythropoietic conditions): upregulated
- KLF1 expression ([16]; TF-1 cells, proliferative condition): significantly suppressed
- NR2F2 expression ([16]; proliferative TF-1 cells): significantly suppressed

Structure (SMILES): Cc1noc(C)c1-c1cnc2c(-c3ccc(C(=O)O)cc3)cn([C@@H](C)c3ccccn3)c2c1 [PLX51107]
- Bromodomain preference (BD1 vs BD2) [1]: preferentially binds to BD1
- Affinity among BET family members [1]: somewhat lower affinity for BRDT
- HBB expression [2, 17]: significantly suppressed
- HBB, HBG1/2 and HBE1 expression compared with JQ1 ([2]; TF-1 cells, 200 nM): mimic the effects of JQ1
- HBB, HBG1/2 and HBE1 expression compared with JQ1 ([3]; 200 nM): mimic the effects of JQ1
